According to patent publication US10820591B2, “Substituted sulfonyl amides for controlling animal pests” (Bayer Aktiengesellschaft, priority 2016, dated 2020):

How the values were obtained:
Assay type in all cases: in vivo
Boophilus microplus = Boophilus microplus injection test; conditions: 20 μg/animal, after 7 days
Method: Boophilus microplus—Injection Test Solvent: dimethyl sulfoxide To produce a suitable active compound preparation, 10 mg of active compound are mixed with 0.5 ml of solvent and the concentrate is diluted to the desired concentration with solvent. 1 μl of the active compound solution is injected into the abdomen of 5 engorged adult female cattle ticks (Boophilus microplus). The animals are transferred into dishes and kept in a climate-controlled room. Efficacy is assessed after 7 days by laying of fertile eggs. Eggs which are not visibly fertile are stored in a climate-controlled cabinet until the larvae hatch after about 42 days. An efficacy of 100% means that none of the ticks has laid any fertile eggs; 0% means that all the eggs are fertile.

Ctenocephalides felis = Ctenocephalides felis oral test; conditions: 100 ppm, after 2 days
Method: Ctenocephalides felis—Oral Test Solvent: dimethyl sulfoxide To produce a suitable active compound preparation, 10 mg of active compound are mixed with 0.5 ml of dimethyl sulfoxide. Dilution with citrated cattle blood gives the desired concentration. About 20 unfed adult cat fleas (Ctenocephalides felis) are placed into a chamber which is closed at the top and bottom with gauze. A metal cylinder whose bottom end is closed with parafilm is placed onto the chamber. The cylinder contains the blood/active compound preparation, which can be imbibed by the fleas through the parafilm membrane. After 2 days, the kill in % is determined. 100% means that all of the fleas have been killed; 0% means that none of the fleas have been killed.

Meloidogyne incognita = Meloidogyne incognita test (sand, lettuce, gall formation); conditions: Meloidogyne incognita, 336 h, 20 ppm, after 14 days; read-out: nematicidal efficacy (formation of galls)
How it was run: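 Gall counts on lettuce roots were scored after 14 days in sand inoculated with root-knot nematode eggs/larvae plus compound diluted in water. Values run from 0% (galls as in untreated plants) to 100% (gall-free).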

Nezara viridula = Nezara viridula spray test; conditions: 500 g/ha, barley plants, after 4 days
Method: Nezara viridula—Spray Test [table] To produce a suitable active compound preparation, 1 part by weight of active compound is dissolved with the specified parts by weight of solvent and made up to the desired concentration with water containing an emulsifier concentration of 1000 ppm. To produce further test concentrations, the formulation is diluted with emulsifier-containing water. Barley plants (Hordeum vulgare) infected with larvae of the Southern green shield bug (Nezara viridula) are sprayed with an active compound preparation of the desired concentration. After 4 days, the efficacy in % is determined. 100% means that all of the shield bugs have been killed; 0% means that none of the shield bugs have been killed.

Nilaparvata lugens = Nilaparvata lugens test; conditions: 500 g/ha, spray, rice plants, after 4 days
Method: Nilaparvata lugens Test [table] To produce a suitable active compound preparation, 1 part by weight of active compound is dissolved with the specified parts by weight of solvent and made up to the desired concentration with water containing an emulsifier concentration of 1000 ppm. To produce further test concentrations, the formulation is diluted with emulsifier-containing water. Rice plants (Oryza sativa) are sprayed with the active compound preparation of the desired concentration and then infected with larvae of the brown planthopper (Nilaparvata lugens). After 4 days, the efficacy in % is determined. 100% means that all of the planthoppers have been killed; 0% means that none of the planthoppers have been killed.

Phaedon cochleariae = Phaedon cochleariae spray test; conditions: 500 g/ha, Chinese cabbage leaf discs, after 7 days
Method: Phaedon cochleariae—Spray Test
(§1) To produce a suitable active compound preparation, 1 part by weight of active compound is dissolved with the specified parts by weight of solvent and made up to the desired concentration with water containing an emulsifier concentration of 1000 ppm. To produce further test concentrations, the formulation is diluted with emulsifier-containing water.
After 7 days, the efficacy in % is determined. 100% means that all the beetle larvae have been killed; 0% means that no beetle larvae have been killed.

Tetranychus urticae = Tetranychus urticae spray test, OP-resistant; conditions: foliar, 144 h, bean leaf discs, after 6 days, read-out: efficacy
Method: Tetranychus urticae—Spray Test, OP-Resistant
as §1
Discs of bean leaves (Phaseolus vulgaris) infested with all stages of the greenhouse red spider mite (Tetranychus urticae) are sprayed with an active compound preparation of the desired concentration.
After 6 days, the efficacy in % is determined. 100% means that all the spider mites have been killed; 0% means that no spider mites have been killed.

Lucilia cuprina = Lucilia cuprina test; conditions: 100 ppm, L1 larvae, after 2 days
Method: Lucilia cuprina Test Solvent: dimethyl sulfoxide To produce a suitable active compound preparation, 10 mg of active compound are mixed with 0.5 ml of dimethyl sulfoxide, and the concentrate is diluted with water to the desired concentration. About 20 L1 larvae of the Australian sheep blowfly (Lucilia cuprina) are transferred into a test vessel containing minced horsemeat and the active compound preparation of the desired concentration. After 2 days, the kill in % is determined. 100% means that all the larvae have been killed; 0% means that no larvae have been killed.

Myzus persicae [1] = assay: Myzus persicae spray test (Chinese cabbage leaf discs); conditions: foliar, 144 h, 500 g/ha, after 6 days, read-out: efficacy
Spodoptera frugiperda = Spodoptera frugiperda spray test; conditions: 500 g/ha, maize leaf discs, after 7 days
Method: Spodoptera frugiperda—Spray Test [table] To produce a suitable active compound preparation, 1 part by weight of active compound is dissolved with the specified parts by weight of solvent and made up to the desired concentration with water containing an emulsifier concentration of 1000 ppm. To produce further test concentrations, the formulation is diluted with emulsifier-containing water. Leaf discs of maize (Zea mays) are sprayed with an active compound preparation of the desired concentration and, after drying, populated with caterpillars of the armyworm (Spodoptera frugiperda). After 7 days, the efficacy in % is determined. 100% means that all the caterpillars have been killed; 0% means that no caterpillar has been killed.

Diabrotica balteata = Diabrotica balteata spray test; conditions: 160 μg/well, after 7 days
Method: Diabrotica balteata—Spray Test [table] To produce a suitable active compound preparation, 1 part by weight of active compound is dissolved with the specified parts by weight of solvent and made up to the desired concentration with water containing an emulsifier concentration of 1000 ppm. To produce further test concentrations, the formulation is diluted with emulsifier-containing water. Pre-swollen wheat grains (Triticum aestivum) are incubated in a multiwell plate filled with agar and a little water for one day (5 seed grains per cavity). The germinated wheat grains are sprayed with an active compound preparation of the desired concentration. Subsequently, each cavity is infected with 10-20 beetle larvae of Diabrotica balteata. After 7 days, the efficacy in % is determined. 100% means that all maize plants have grown as in the untreated, uninfected control; 0% means that no maize plant has grown.

Myzus persicae [2] = assay: Myzus persicae oral test; conditions: 120 h, 20 ppm, after 5 days, read-out: efficacy
Myzus persicae [3] = assay: Myzus persicae spray test (bell pepper plants); conditions: 100 ppm, after 6 days
Method: Myzus persicae—Spray Test [table] To produce a suitable active compound preparation, 1 part by weight of active compound is dissolved with the specified parts by weight of solvent and made up to the desired concentration with water containing an emulsifier concentration of 1000 ppm. To produce further test concentrations, the formulation is diluted with emulsifier-containing water. If the addition of ammonium salts or/and penetrants is required, these are each added in a concentration of 1000 ppm to the formulation solution. Bell pepper plants (Capsicum annuum) severely infested with the green peach aphid (Myzus persicae) are treated by spraying with the active compound preparation in the desired concentration. After 6 days, the kill in % is determined. 100% means that all of the aphids have been killed; 0% means that none of the aphids have been killed.

Aphis gossypii = Aphis gossypii oral test; conditions: 100 ppm, after 5 days
Method: Aphis gossypii—Oral Test [table] To produce a suitable active compound preparation, 1 part by weight of active compound is dissolved with the stated parts by weight of solvent and made up to the desired concentration with water. 50 μl of the active compound preparation are transferred into microtitre plates and made up to a final volume of 200 μl with 150 μl of IPL41 insect medium (33%+15% sugar). Subsequently, the plates are sealed with parafilm, which a mixed population of the cotton aphid (Aphis gossypii) within a second microtitre plate is able to puncture and imbibe the solution through it. After 5 days, the efficacy in % is determined. 100% means that all the aphids have been killed; 0% means that no aphids have been killed.

Row | SMILES | efficacy (laying of fertile eggs) (Boophilus microplus) | pest or weed control at 20 ppm (Meloidogyne incognita) | efficacy (Phaedon cochleariae) | pest or weed control at 500 g/ha (Tetranychus urticae) | pest or weed control at 500 g/ha (Myzus persicae [1]) | efficacy (Spodoptera frugiperda) | further results
1 | COc1cccc(S(=O)(=O)NC(=O)c2ncn(CCC(F)(F)F)c2Cl)c1 [I-032] | 90% | 90% | 83% | 90% |  |  | efficacy (kill in %) (Ctenocephalides felis): 70%; efficacy (Nezara viridula): 100%; efficacy (Nilaparvata lugens): 100%
2 | Cc1cccc(S(=O)(=O)NC(=O)c2ncn(CCC(F)(F)F)c2Cl)c1 [I-035] | 100% | 90% | 100% |  |  |  | efficacy (kill in %) (Lucilia cuprina): 100%; efficacy (Nezara viridula): 100%; efficacy (Nilaparvata lugens): 100%
3 | O=C(NS(=O)(=O)c1ccccc1)c1ncn(C2CC2C(F)(F)F)c1Cl (stereo not shown) [I-059] | 100% | 100% | 83% | 90% | 70% | 100% | 
4 | O=C(NS(=O)(=O)c1ccccc1Cl)c1ncn(C2CC2C(F)(F)F)c1Cl (stereo not shown) [I-060] | 70% | 90% |  | 90% | 70% | 100% | 
5 | COc1ccc(Cl)c(S(=O)(=O)NC(=O)c2nc(Cl)n(CCC(F)(F)F)c2Cl)c1 [I-118] |  | 100% |  |  |  |  | efficacy (Diabrotica balteata): 100%
6 | O=C(NS(=O)(=O)c1ccccc1Cl)c1cn(Cc2ccccc2Cl)cn1 [I-156] |  | 100% |  |  |  | 100% | 
7 | Cc1nc(C(=O)NS(=O)(=O)c2ccccc2Cl)cn1-c1cc(Cl)cc(Cl)c1 [I-316] |  | 100% |  |  |  |  | pest or weed control at 20 ppm (Myzus persicae [2]): 100%; efficacy (kill in %) (Myzus persicae [3]): 95%
8 | CCSc1cccc(Cl)c1S(=O)(=O)NC(=O)c1cn(-c2cc(F)cc(F)c2)c(C)n1 [I-387] |  | 100% |  |  | 70% |  | pest or weed control at 20 ppm (Myzus persicae [2]): 100%; efficacy (kill in %) (Myzus persicae [3]): 99%
9 | CS(=O)(=O)NC(=O)c1cn(Cc2ccc(C(F)(F)F)c(Cl)c2)cn1 [I-412] |  | 100% |  |  |  |  | efficacy (Aphis gossypii): 90%
